For series [1], the target named is T1, ΔF508 CFTR (Homo sapiens, UniProt P13569, DEL508-508).
T1 construct: host or cells: CFBE41o- TetON cells, expression induced with doxycycline
Put plainly: CSE-HRP: cell surface expression horseradish peroxidase assay in CFBE41o- cells. Format: cell-based. The following applies: for Emax: CFBE41o-. The method, then: A CFBE41o– cell line stably expressing ΔF508 CFTR harboring an HRP-tag in the fourth extracellular loop was obtained from Professor Gergely Lukacs (Department of Physiology, McGill University, Montreal, QC, Canada).[25] Cells were grown in Eagle’s minimal essential medium (Life Technologies) supplemented with 10% FBS, 1% L-glutamine (Life Technologies), 10 mM HEPES (Life Technologies), 200 μg/mL Geneticin (Life Technologies), and 3 μg/mL puromycin (Sigma) in culture flasks coated with 0.01% bovine serum albumin (BSA) (Sigma), 30 μg/mL Purecol (Nutacon), and 0.001% human fibronectin (Sigma).
CFBE41o– TetON cells expressing HRP tagged ΔF508-CFTR were seeded in white 384-well plates (Greiner) at a density of 2000 cells per well. Medium containing 500 ng/mL doxycycline was used to induce expression of ΔF508-CFTR-HRP. After 3 days, cells were treated with corrector or potentiator compounds and transferred to an incubator at 33 °C. On day 4, cells were washed five times with PBS containing Ca^2+ and Mg^2+ using a Bio-Tek plate washer and incubated with a chemiluminescent HRP substrate (SuperSignal West Pico Chemiluminescent Substrate, Thermo Scientific) for 15 min. Chemiluminescence was measured using an Envision plate reader (PerkinElmer). Dose response data was fitted using a 4 parameter hill function of the form Response = neg control + (pos control – neg control)/(1 + 10^(log EC50-concentration)/HillSlope) to determine EC50 values. Percentage efficacy was calculated using the following formula: (max response – neg control)/(C1 response – neg control).

A short description of series [2]: Plasma protein binding, human. Format: in vitro ADME. Conditions: human, plasma, pH 7.4, human plasma; read-out: PPB % human (converted). The method, then: (§1) Plasma protein binding was determined by equilibrium dialysis using the Pierce Red Device plate with inserts (ThermoScientific). Test compound at 5 μM (0.5% DMSO) spiked in freshly thawed human, rat, mouse, or dog plasma (Bioreclamation INC, Westbury, NY, USA) was dialyzed against phosphate-buffered saline (PBS, pH 7.4) at 37 °C under shaking for 4 h. Aliquots were taken from each side of the well, and matrix matched. Proteins were precipitated with an excess of acetonitrile, samples were mixed and centrifuged, and the supernatant was analyzed by liquid chromatography–mass spectrometry/mass spectrometry (LC–MS/MS). Addition of compound peak areas in the buffer chamber and the plasma chamber was considered to be 100% compound.

The nature of series [3]: PK rat. Format: in vivo. The following applies: male, Sprague-Dawley, plasma; for Vd: read-out: Vss. The method, then: These studies were performed with naïve male Sprague–Dawley rats (Janvier France, 6–8 weeks old). Rats were dosed iv via a bolus in the tail vein with a dose level of 0.1 mg/kg or orally as a single esophageal gavage with a dose level of 5 mg/kg. For the iv route, the compound was formulated in PEG200/water (60/40; v/v). For the oral route, the compound was formulated in MC 0.5% (2/98) as a homogeneous suspension. Before the oral dosing, the animals were deprived of food for at least 12 h before compound administration until 3 h after administration. All animals had free access to the tap water. Blood samples were collected under light anesthesia and placed into tubes containing Li-heparin as an anticoagulant. Blood samples were collected up to 24 h after dosing (n = 3 rats per route). After centrifugation, the resulting plasma samples were assayed by LC-MS/MS with a nongood laboratory practice (non-GLP)-validated method. PK parameters were calculated by noncompartmental analysis using WinNonlin software (Certara, Princeton, NJ, USA).

Series [4] can be described thus: Plasma protein binding, rat. The following applies: pH 7.4, read-out: PPB % rat (converted). Format: in vitro ADME. The method, then: as §1
The target in series [5] is T1, ΔF508 CFTR. Put plainly: TECC (transepithelial clamp circuit) in primary CF-derived HBE cells. Format: cell-based. The procedure: Bronchial epithelial cells isolated from the lungs of patients with CF homozygous for the ΔF508 CFTR mutation were obtained from McGill University (Montreal, QC, Canada) or the University of North Carolina (Chapel Hill, NC, United States). Cells were isolated from lungs obtained from donors undergoing planned transplantation. These primary cells were cultured directly on type IV collagen-coated polycarbonate Transwell supports with a diameter of 6.5 mm and pore size of 0.4 μm (Costar, #3397) for 18–25 days in an air–liquid interface, essentially as previously described for TECC.[23]
Twenty-four hours prior to the electrophysiological recording, corrector and/or potentiator compounds were added on both the apical and basolateral sides. TECC recordings were performed by using the TECC instrument developed and sold by EP Design (Bertem, Belgium). During the recording, the epithelial cells were bathed in a NaCl-Ringer solution (120 mM NaCl, 20 mM HEPES, 1.2 mM CaCl2, 1.2 mM MgCl2, 0.8 mM KH2PO4, 0.8 mM K2HPO4, 5 mM glucose, pH 7.4) on both the basolateral (640 μL) and the apical (160 μL) sides and kept at 37 °C. Corrector and potentiator compounds were readded at the same concentration used during the 24 h pretreatment. Apical amiloride was used to inhibit the endogenous ENaC currents (100 μM), while forskolin (10 μM) was applied on both the apical and basolateral sides to stimulate CFTR. Measurements were done during a 20 min time frame with recordings every 2 min. The transepithelial potential and transepithelial resistance were measured in an open circuit and transformed to Ieq using Ohm’s law. The maximal increase in Ieq (ΔIeq, the difference in current before and after forskolin or potentiator treatment) was used as a measure for the increased CFTR activity. EC50 values were generated by measuring the impact of different concentrations of compounds on ΔIeq in primary cells. For this purpose, each transwell was treated with a different compound concentration. CFTRInh-172 was added apically at 10 μM to assess the specificity of the response. Dose response data was fitted using a 3-parameter hill function of the form Response = Bottom + (Top – Bottom)/(1 + (EC50/concentration)) to determine EC50 values. Percentage efficacy was calculated using the following formula: (max response – neg control)/(C1 response – neg control).

Where [6] appears, read: no additional corrector, relative to lumacaftor or 5 (3 μM) positive control, read-out: CSE-HRP % max activation.
Setting [7] is: no additional corrector, 24 h incubation, 33 °C, geometric mean, read-out: CSE-HRP EC50.
[8] abbreviates: in the presence of C1 corrector 5, relative to 5 (3 μM) positive control, read-out: CSE-HRP with 5 % max activation.
Where [9] appears, read: in the presence of C1 corrector 5, read-out: CSE-HRP with 5 EC50.

Read-outs that look alike come from different tables or passages of the source.

T1 sequence (P13569 with tags, fused parts or gaps DEL508-508): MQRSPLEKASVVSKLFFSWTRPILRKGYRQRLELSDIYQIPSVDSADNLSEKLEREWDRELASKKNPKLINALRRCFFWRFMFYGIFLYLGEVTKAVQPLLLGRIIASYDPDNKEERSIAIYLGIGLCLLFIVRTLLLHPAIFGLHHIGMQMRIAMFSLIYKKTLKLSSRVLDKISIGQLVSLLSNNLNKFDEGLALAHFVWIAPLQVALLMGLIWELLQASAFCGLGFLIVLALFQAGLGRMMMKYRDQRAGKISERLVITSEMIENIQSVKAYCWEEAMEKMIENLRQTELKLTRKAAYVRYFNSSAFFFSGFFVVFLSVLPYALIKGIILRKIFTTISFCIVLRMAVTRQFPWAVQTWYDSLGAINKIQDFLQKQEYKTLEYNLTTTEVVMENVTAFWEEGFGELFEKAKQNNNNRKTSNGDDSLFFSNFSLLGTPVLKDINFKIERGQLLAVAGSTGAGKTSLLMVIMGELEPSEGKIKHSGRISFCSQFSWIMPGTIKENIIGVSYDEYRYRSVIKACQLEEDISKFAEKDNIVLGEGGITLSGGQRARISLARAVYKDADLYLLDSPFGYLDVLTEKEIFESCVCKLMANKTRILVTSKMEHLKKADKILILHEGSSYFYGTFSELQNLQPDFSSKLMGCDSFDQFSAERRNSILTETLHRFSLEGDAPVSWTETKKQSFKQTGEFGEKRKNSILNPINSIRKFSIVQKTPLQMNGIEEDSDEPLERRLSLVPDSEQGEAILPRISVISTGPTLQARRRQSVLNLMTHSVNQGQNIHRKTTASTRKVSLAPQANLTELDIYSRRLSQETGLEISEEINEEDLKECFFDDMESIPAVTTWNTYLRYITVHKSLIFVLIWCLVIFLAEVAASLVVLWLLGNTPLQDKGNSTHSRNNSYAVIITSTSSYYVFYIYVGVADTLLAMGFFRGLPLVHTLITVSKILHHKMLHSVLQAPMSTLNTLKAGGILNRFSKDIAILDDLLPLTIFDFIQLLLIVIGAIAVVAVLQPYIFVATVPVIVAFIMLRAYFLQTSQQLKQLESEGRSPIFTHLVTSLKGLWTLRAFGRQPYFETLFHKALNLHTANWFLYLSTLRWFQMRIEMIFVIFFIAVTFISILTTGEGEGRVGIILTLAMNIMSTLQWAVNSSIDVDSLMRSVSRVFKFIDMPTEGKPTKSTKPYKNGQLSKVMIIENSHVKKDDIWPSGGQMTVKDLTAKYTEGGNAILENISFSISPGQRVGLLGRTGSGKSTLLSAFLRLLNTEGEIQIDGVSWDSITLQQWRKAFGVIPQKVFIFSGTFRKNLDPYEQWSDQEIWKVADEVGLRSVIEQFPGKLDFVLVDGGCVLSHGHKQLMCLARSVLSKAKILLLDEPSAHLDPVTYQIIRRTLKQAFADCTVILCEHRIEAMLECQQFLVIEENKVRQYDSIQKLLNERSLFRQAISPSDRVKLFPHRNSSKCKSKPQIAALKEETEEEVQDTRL

Consider `Cc1nn(C2CCN(C)CC2)c2nc(C(=O)O)cc(-c3ccc(N4CCOCC4)cc3)c12` [Compound 14], for which the Emax in series [1] (setting [6]) was -2%. The EC50 in series [1] (setting [7]) was 10000 nM.

`O=C(O)c1cc(-c2ccc(N3CCOCC3)cc2)c2cnn(-c3ccccc3)c2n1` [Compound 15]: the Emax in series [1] (setting [6]) was 116%. Further, the EC50 in series [1] (setting [7]) turned out to be 1270 nM.

For the molecule `CC(C)c1nn(-c2ccccc2)c2nc(C(=O)O)cc(-c3ccc(N4CCOCC4)cc3)c12` [Compound 16], the Emax in series [1] (setting [6]) came out at 184%. Moreover, the 50% effective concentration (EC50) in series [1] (setting [7]) came to 448 nM.

In the case of `O=C(O)c1cc(-c2ccc(N3CCOCC3)cc2)c2c(C3CCC3)nn(-c3ccccc3)c2n1` [Compound 18], in series [2], the fraction unbound at 4 h, 5 μM is 0.01. The clearance in series [3] (1 mg/kg, iv dosing, read-out: plasma clearance (converted)) is 3.33 mL/min/kg; in series [3] (iv, 0.1 mg/kg, formula-strings file, unit inferred, read-out: Cl (converted)), 3.33 mL/min/kg. Moreover, the Vd in series [3] (iv, 0.1 mg/kg, formula-strings file, unit inferred) turned out to be 0.474 L/kg; in series [3] (iv, 1 mg/kg, 1 mg/kg iv) it was 0.474 L/kg.

`COCCNc1ccc(-c2cc(C(=O)O)nc3c2c(C)nn3-c2ccccc2)cc1` [Compound 24]: in series [1] (setting [6]), the Emax amounted to 175%. The EC50 in series [1] (setting [7]) is 2120 nM.

On to `COCCN(C)c1ccc(-c2cc(C(=O)O)nc3c2c(C)nn3-c2ccccc2)cc1` [Compound 25], for which the Emax in series [1] (setting [6]) is 204%. For the same molecule, the EC50 in series [1] (setting [7]) amounted to 1490 nM.

In the case of `CC(=O)c1cc(-c2ccc(N3CCOCC3)cc2)c2c(C)nn(-c3ccccc3)c2n1` [Compound 29], the Emax in series [1] (setting [6]) was determined as 8.2%. Moreover, the EC50 in series [1] (setting [7]) was 10000 nM.

Consider `Cc1nn(-c2ccccc2)c2nc(CO)cc(-c3ccc(N4CCOCC4)cc3)c12` [Compound 30], for which the Emax in series [1] (setting [6]) was determined as 15%. For the same molecule, the EC50 in series [1] (setting [7]) worked out at 10000 nM.

With `Cc1nn(-c2ccccc2)c2nc(C(C)O)cc(-c3ccc(N4CCOCC4)cc3)c12` (centres unmarked) [Compound 31], the Emax in series [1] (setting [6]) is 8.8%. In addition, in series [1] (setting [7]), the EC50 amounted to 10000 nM.

On to `Cc1nn(-c2ccccc2)c2nc(C(C)(C)O)cc(-c3ccc(N4CCOCC4)cc3)c12` [Compound 32], for which the Emax in series [1] (setting [6]) was found to be 5%. The EC50 in series [1] (setting [7]) is 10000 nM.

Take `Cc1nn(-c2ccccc2)c2nc(C(=O)NCC(F)(F)F)cc(-c3ccc(N4CCOCC4)cc3)c12` [Compound 33]: the Emax in series [1] (setting [6]) stood at 7%. Also, the EC50 in series [1] (setting [7]) turned out to be 10000 nM.

Consider `COc1cc(-c2cc(-c3ccc(N4CCOCC4)cc3)c3c(C)nn(-c4ccccc4)c3n2)n[nH]1` [Compound 34], for which, in series [1] (setting [6]), the Emax turned out to be 4%. In addition, the EC50 in series [1] (setting [7]) turned out to be 10000 nM.

Consider `Cc1nn(-c2ccccc2)c2nc(CC(=O)O)cc(-c3ccc(N4CCOCC4)cc3)c12` [Compound 35], for which, in series [1] (setting [6]), the Emax was determined as 24%. Besides, the EC50 in series [1] (setting [7]) is 10000 nM.

Consider `Cc1nn(-c2ccccc2)c2nc(C(=O)NC#N)cc(-c3ccc(N4CCOCC4)cc3)c12` [Compound 36], for which the Emax in series [1] (setting [6]) worked out at 96%. Moreover, in series [1] (setting [7]), the EC50 was 2980 nM.

Turning to `CS(=O)(=O)NC(=O)c1cc(-c2ccc(N3CCOCC3)cc2)c2c(C3CCC3)nn(-c3ccccc3)c2n1` [Compound 39], the fraction unbound at 4 h, 5 μM in series [2] is 0.0005.

In the case of `COCCN(C)c1ccc(-c2cc(C(=O)O)nc3c2c(C2CCC2)nn3-c2ccccc2)cc1` [Compound 40], the Emax in series [1] (setting [8]) is 325%; in series [1] (setting [6]), 173%. The EC50 in series [1] (setting [9]) amounted to 448 nM; in series [1] (setting [7]), 542 nM.

Take `COCCN(C)c1ccc(-c2cc(C(=O)O)nc3c2c(C2CCC2)nn3-c2ccccc2)cn1` [Compound 42]: the Emax in series [1] (setting [8]) is 417%; in series [1] (setting [6]) it was 191%. For the same molecule, the EC50 was found to be 483 nM in series [1] (setting [9]) and 529 nM in series [1] (setting [7]).

As for `CS(=O)(=O)NC(=O)c1cc(N2CCCCC2)c2c(C3CCC3)nn(-c3ccccc3)c2n1` [Compound 46], the values for the fraction unbound at 4 h, 5 μM in series [4] and in series [2] were 0.001 and less than 0.001, respectively.

On to `COC1CCN(c2cc(C(=O)NS(C)(=O)=O)nc3c2c(C2CCC2)nn3-c2ccccc2)CC1` [Compound 47], for which the fraction unbound at 4 h, 5 μM in series [4] and in series [2] was 0.002 each time.

For `CS(=O)(=O)NC(=O)c1cc(N2CCC(C#N)CC2)c2c(C3CCC3)nn(-c3ccccc3)c2n1` [Compound 48], the Emax in series [5] (primary ΔF508 homozygous HBE cells, 24 h incubation, with GLPG2222, read-out: TECC HBE with GLPG2222 % max activation) turned out to be 265%. Further, the EC50 in series [5] (primary ΔF508 homozygous HBE cells, 24 h incubation, with GLPG2222, read-out: TECC HBE with GLPG2222 EC50) amounted to 60 nM. The fraction unbound at 4 h, 5 μM in series [4] and in series [2] was 0.003 in each case.

As to `CC1(C)Cc2c(sc(NC(=O)c3ccn[nH]3)c2C(N)=O)C(C)(C)O1` [GLPG1837, reference compound], in series [5] (no C2 corrector (reference)), the fold is 1 fold. Also, in series [5] (no C2 corrector, C1 corrector GLPG2222 (4) 0.15 μM, read-out: EC50 of potentiator GLPG1837), the EC50 amounted to 13 nM.

Values taken from publication PMC11017246, “Discovery of GLPG2737, a Potent Type 2 Corrector of CFTR for the Treatment of Cystic Fibrosis in Combination with a Potentiator and a Type 1 Co-corrector” (Journal of Medicinal Chemistry, 2024).
